Test results reported in patent US7759377B2, “Acylaminothiazole derivatives and use thereof as beta-amyloid inhibitors” (Sanofi-Aventis, priority 2004, dated 2010).

Biological target: T1, gamma-secretase (Homo sapiens, UniProt P49768, M146L)
T1 construct: expressed in transfected cells; host or cells: CHO-K1, clone 30-12
Test: β-amyloid cellular test: inhibition of production of β-A4 peptide, ELISA of cellular supernatants
Format: cell-based
Conditions: CHO-K1 line coexpressing CT100 of APP and PS1 M146L clone 30-12; 24-25 h incubation; secreted amyloid peptide by ELISA
Text: For the β-amyloid cellular test, the CHO—K1 line coexpressing the CT100 of APP and PS1 M146L clone 30-12 is used. The line targets the inhibition of gamma-secretase. Presenilin is linked to gamma-secretase activity (Wolfe M S, Haass C., The Role of presenilins in gamma-secretase activity, J. Biol. Chem. 2001, 276(8): 5413-6) and its coexpression with the amyloid protein or its N-terminal fragment causes an increase in secretion of the peptide A1-42 (β-A4), thereby generating a pharmacological tool which allows inhibition by the compounds of formula (I) of the production of the β-A4 peptide to be evaluated. 96-well culture plates are inoculated with 1×10^5 cells per well in 150 μl of incubation medium. The presence of a minimum percentage (1.3% final) of serum allows cellular adhesion to the plastic after 2-3 hours of incubation at 37° C., in the presence of 5% CO2. The products (15 μl) are tested at 10 μM DMSO 1% final and are incubated for 24-25 h at 37° C. in the presence of 5% CO2 and 100% humidity. After this 24-25 h incubation, the cellular supernatants (100 μl) are transferred to ELISA plates, treated with the capture antibody 6E10 (6E10, epitope: aa1-17, INTERCHIM/SENETEK 320/10), to determine the amount of amyloid peptides secreted by the cells in the presence of compounds according to the invention. A series of synthetic control peptide, “peptide 1-40”, at 5 and 10 ng/ml is treated in parallel. The ELISA plates are incubated overnight at 4° C.
The quantity of bound peptide is detected indirectly in the presence of a competitor which corresponds to the truncated peptide, peptide 1-28 coupled to biotin, which is then detected with streptavidin coupled to alkaline phosphatase. The substrate, p-nitrophenyl phosphate (pNPP FAST p-Nitrophenyl Phosphate, Sigma N2770), gives a yellow, soluble reaction product which can be read at 405 nm. The reaction is stopped with 0.1 M EDTA solution. For this purpose, following binding of the amyloid peptide in the ELISA plate, 50 μl of biotinylated peptide 1-28 are added to 100 μl of cellular supernatant and incubated for 30 minutes at ambient temperature. The ELISA plates are then washed 3 times. After drying by inversion on absorbent paper, 100 μl of streptavidin-alkaline phosphatase (Interchim/Jackson ImmunoResearch Laboratories 016-050-084) are added per well and incubated for 1 hour at ambient temperature. The plates are washed again and then the alkaline phosphatase substrate (pNPP 1 mg/ml) is added in an amount of 100 μl per well. After 30 minutes of incubation at ambient temperature the reaction is stopped by adding 100 μl per well of 0.1 M EDTA and reading is carried out at 405 nm.

EC50 [µM] | SMILES
0.052 | CCC[C@H](NC(=O)[C@@H](O)C(C)(C)C)C(=O)Nc1nc(-c2nc(-c3ccccc3)no2)c(C(C)C)s1 [Compound 7]
0.085 | CCCC(NC(=O)C(O)c1cc(F)cc(F)c1)C(=O)Nc1nc(C)c(-c2nc(C)no2)s1 (stereo not shown) [Compound 40]
0.094 | CCC[C@H](NC(=O)[C@@H](O)C(C)(C)C)C(=O)Nc1ncc(-c2nnnn2Cc2ccccc2)s1 [Compound 51, 2-{2-(S)-[2-(S)-hydroxy(3,3-dimethyl)butyrylamino]pentanoyl}amino-5-(1-benzyl-1H-tetrazol-5-yl)thiazole]
0.042 | CCC[C@H](NC(=O)[C@@H](O)C(C)(C)C)C(=O)Nc1nc(-c2nc3ccccc3o2)c(C(C)C)s1 [Compound 34, 2-{2-(S)-[2-(S)-hydroxy(3,3-dimethyl)butyrylamino]pentanoyl}amino-5-(1-methylethyl)-4-(1,3-benzoxazol-2-yl)thiazole]
